These results are taken from patent US9482924B2, “Colored composition and image display structure” (FUJIFILM CORPORATION, priority 2011, dated 2016).

Series [1] can be described thus: Absorption maximum wavelength, absorbance and absorption coefficient of colored solution. The note with it: n-hexane colored solution; for Absorption coefficient (ε): calculated in accordance with the Lambert-Beer law. In kind it is physicochemical. Here is the method: Azomethine pigments (preparing the above exemplified compounds D-1, D-5, D-11, D-20, D-26, D-38, D-43, D-46, D-49, D-55, D-56, D-57 and D-65 shown in the following Table) and n-hexane as an organic solvent were mixed to prepare a 15% by mass azomethine pigment-n-hexane solution (colored composition), thereby manufacturing 13 kinds of colored solutions.
For the colored solution (colored composition), the absorption maximum wavelength (λmax) and the absorbance were measured with a visible light absorbance spectrometer (UV-1800PC, manufactured by Shimadzu Corporation) and the absorption coefficient (ε) was calculated in accordance with the Lambert-Beer law.

The nature of series [2]: Measurement of dynamic viscosity. In kind it is physicochemical. The following applies: solution of 10% by mass of pigment in decane. As to the method:
Note that, the dynamic viscosity is a value measured by adjusting a solution at 10% by mass of the pigment in decane to 20° C. using a viscometer (500 TYPE, manufactured by Toki Sangyo Co., Ltd.).
For the azomethine pigments shown in the following Table 7, a solution of 10% by mass of each pigment in decane was prepared and an R-type viscometer (500 TYPE, manufactured by Toki Sangyo Co., Ltd.) was used to measure the viscosity thereof at 20° C.

The nature of series [3]: Measurement of relative permittivity. The class given is physicochemical. The note with it: pigment itself, extrapolated from 5, 7.5 and 10% by mass solutions in n-hexane; 20° C., 40% RH, 1 kHz. As to the method:
The relative permittivity is a value obtained by injecting the colored composition into a glass cell having a cell gap of 10 μm to which an indium tin oxide (ITO) transparent electrode is attached and measuring, at 20° C. and 40% RH, the electric capacitance of the cell with the colored composition thus-obtained using a TYPE 2353LCR METER (measuring frequency: 1 kHz) manufactured by NF Co., Ltd.
The azomethine pigments shown in the following Table 7 were prepared and solutions of 5% by mass, 7.5% by mass and 10% by mass of each pigment dissolved in n-hexane (all were colored solutions) were prepared. Each colored solution obtained was injected into a glass cell having a cell gap of 10 μm to which an indium tin oxide (ITO) transparent electrode was attached. For each of the glass cells, the electric capacitance was measured (measuring frequency: 1 kHz). Further, a cell for reference was prepared by injecting only n-hexane into a glass cell which was the same kind of glass cell as described above, and the electric capacitance of the cell for reference was also measured. The electric capacitance of the cell obtained was measured at 20° C. and 40% RH using a type 2353LCR meter (measuring frequency: 1 kHz) manufacture by NF Co., Ltd.
The relative permittivity of each colored solution was obtained by the above measurement, and the relative permittivity of each azomethine pigment itself was calculated from the above relative permittivity by extrapolation.

The nature of a further series: Solubility in n-hexane. The note with it: in n-hexane at 25° C. and 0.1 MPa.

Method for Solubility in n-hexane: Hereinafter, “a solubility in n-hexane at 25° C. and 0.1 MPa” of a pigment is also simply referred to as “solubility”.
The solubility of each azomethine pigment in n-hexane, which is a non-polar solvent, was measured by the following method.
Each pigment was dissolved in n-hexane that had been heated to 50° C. to prepare a saturated solution, and then the saturated solution obtained was left to stand in an environment of 0.1 MPa at 25° C. for 1 hour. The precipitated pigment was filtered and the precipitation amount was measured, thereby calculating the solubility (% by mass) of each pigment in n-hexane at 25° C. and 0.1 MPa.

On to `CCCCCCCCCCCCCCCCCCNC(=O)C1=CC(=Nc2ccc(N(CC)CC)cc2OC)c2ccccc2C1=O` [Pigment D-43], for which, in series [1], the “Absorption maximum wavelength [λmax]” value is on record as 658 nm and the “Absorption coefficient (ε)” value is on record as 2.6 × 10^4. Also, the “Viscosity (20° C.)” value in series [2] was found to be 1.5 mPa · s. Also, the Relative permittivity in series [3] is 4.7.
`CCN(CC)c1ccc(N=C2C(=O)N(c3ccccc3)N=C2C)c(C)c1` [Pigment D-101, reference compound]: the “Solubility (% by mass)” value in “Solubility in n-hexane” is reported as 0.05 or less % by mass.
As to `CCN(CC)c1ccc(N=C2C=C(NC(C)=O)C(=O)C(Cl)=C2C)c(C)c1` [Pigment D-103, reference compound], the “Solubility (% by mass)” value in the series “Solubility in n-hexane” is on record as at most 0.05 % by mass.
Take `CCCCCCOc1cc(N(CCCCCC)CCCCCC)ccc1N=C1C(C#N)=Nn2nc(C(C)(C)C)nc21` [Pigment D-56]: in series [1], the “Absorption maximum wavelength [λmax]” value came to 550 nm and the “Absorption coefficient (ε)” value is 7.2 × 10^4. The “Solubility (% by mass)” value in “Solubility in n-hexane” is on record as 3.5 % by mass.
Take `CCCCCCN(CCCCCC)c1ccc(N=C2C=C(C(=O)Nc3ccccc3)C(=O)c3ccccc32)c(C)c1` [Pigment D-46]: in series [1], the “Absorption maximum wavelength [λmax]” value is listed as 635 nm and the “Absorption coefficient (ε)” value is given as 2.8 × 10^4.
`CCCCCCN(CCCCCC)c1ccc(N=C2C(=O)N(c3ccccc3)N=C2C(C)(C)C)c(C)c1` [Pigment D-11]: in series [1], the “Absorption maximum wavelength [λmax]” value is 502 nm and the “Absorption coefficient (ε)” value was 5.60 × 10^4. Also, the “Solubility (% by mass)” value in “Solubility in n-hexane” is listed as 1.1 % by mass.
`CCCCCCCCN1N=C(C(C)(C)C)C(=Nc2ccc(N(CC)CC)cc2C)C1=O` [Pigment D-5]: in series [1], the “Absorption maximum wavelength [λmax]” value is 502 nm and the “Absorption coefficient (ε)” value is recorded as 5.20 × 10^4. The “Solubility (% by mass)” value in the series “Solubility in n-hexane” came to 8.5 % by mass.
In the case of `CCCCCCCCN1CCc2cc(/N=C3/C(C)=Nn4nc(C(C)CNC(=O)C(CCCCCC)Oc5ccc(C(C)(C)CC)cc5C(C)(C)CC)nc43)ccc21` [Pigment D-57], in series [1], the “Absorption maximum wavelength [λmax]” value is 540 nm and the “Absorption coefficient (ε)” value is recorded as 7.55 × 10^4. Besides, the “Viscosity (20° C.)” value in series [2] was determined as 1.2 mPa · s. The Relative permittivity in series [3] is listed as 6.2. The “Solubility (% by mass)” value in the series “Solubility in n-hexane” was 12.3 % by mass.
For `CCCCCCCCCCCCCCCCNC(=O)C1=CC(=Nc2ccc(N(CC)CC)cc2CC)c2ccccc2C1=O` [Pigment D-38], in series [1], the “Absorption maximum wavelength [λmax]” value worked out at 630 nm and the “Absorption coefficient (ε)” value is 2.9 × 10^4. Besides, the “Viscosity (20° C.)” value in series [2] is 1.5 mPa · s. The Relative permittivity in series [3] is reported as 4.4.
Take `CCN(CC)c1ccc(/N=C2\C(C#N)=C(C(=O)OC)c3nc(-c4ccc(C(C)(C)C)cc4)nn32)c(C)c1` [Pigment D-106, reference compound]: in the series “Solubility in n-hexane”, the “Solubility (% by mass)” value was at most 0.05 % by mass.
Regarding `CCCCCCCCOc1cc(N(CCCC)CCCC)ccc1N=C1C(=O)ON=C1c1ccccc1` [Pigment D-20], in series [1], the “Absorption maximum wavelength [λmax]” value was 480 nm and the “Absorption coefficient (ε)” value was 4.80 × 10^4. The “Viscosity (20° C.)” value in series [2] is reported as 1.2 mPa · s. For the same compound, in series [3], the Relative permittivity was 8.8.
As for `CCCCCCCCN(CCCCCCCC)c1ccc(N=C2C(=O)N(c3ccccc3)N=C2C)c(C)c1` [Pigment D-1], in series [1], the “Absorption maximum wavelength [λmax]” value was 500 nm and the “Absorption coefficient (ε)” value is 6.05 × 10^4. Moreover, the “Viscosity (20° C.)” value in series [2] is reported as 1.3 mPa · s. The Relative permittivity in series [3] is given as 8.6. The “Solubility (% by mass)” value in “Solubility in n-hexane” was 9.5 % by mass.
In the case of `CCCCCCCCN(CCCCCCCC)c1ccc(N=C2C(C(C)(C)C)=Nn3nc(-c4ccccc4)nc32)c(C)c1` [Pigment D-49], in series [1], the “Absorption maximum wavelength [λmax]” value was 518 nm and the “Absorption coefficient (ε)” value was 7.2 × 10^4. For the same compound, in series [2], the “Viscosity (20° C.)” value is 1.2 mPa · s. In addition, in series [3], the Relative permittivity is 6.7. For the same compound, in the series “Solubility in n-hexane”, the “Solubility (% by mass)” value turned out to be 11 % by mass.
In the case of `CCN(CC)c1ccc(N=C2C(=O)ON=C2C(C)(C)C)cc1` [Pigment D-102, reference compound], the “Solubility (% by mass)” value in the series “Solubility in n-hexane” was at most 0.05 % by mass.
For the compound `CCCCCCN(CCCCCC)c1cc(C)c(N=C2C(C#N)=C(C(=O)OC3C(C(C)(C)C)CC(C)CC3C(C)(C)C)c3nc(C(C)(C)C)nn32)c(C)c1` [Pigment D-65], in series [1], the “Absorption maximum wavelength [λmax]” value worked out at 725 nm and the “Absorption coefficient (ε)” value is 6.8 × 10^4. In addition, the “Solubility (% by mass)” value in “Solubility in n-hexane” was at least 15.0 % by mass.
As for `CCCCN(CCCC)c1ccc(N=C2C=C(C(=O)NC)C(=O)c3ccccc32)cc1` [Pigment D-104, reference compound], the “Solubility (% by mass)” value in “Solubility in n-hexane” is given as at most 0.05 % by mass.
With `CCCCCCCCNC(=O)C1=CC(=Nc2ccc(N(CCCCCCCC)CCCCCCCC)cc2)C=C(C)C1=O` [Pigment D-26], in series [1], the “Absorption maximum wavelength [λmax]” value is listed as 626 nm and the “Absorption coefficient (ε)” value is on record as 2.8 × 10^4. The “Viscosity (20° C.)” value in series [2] was found to be 1.4 mPa · s. Besides, the Relative permittivity in series [3] is 6.
